Measured values as given in ChEMBL document CHEMBL5375972, “Discovery of Novel 2,3-Dihydro-1H-indene-5-sulfonamide NLRP3 Inflammasome Inhibitors Targeting Colon as a Potential Therapy for Colitis” (J Med Chem, 2023).

What was measured:
[1] = Subacute toxicity in C57BL/6 mouse assessed as liver histological changes at 10 mg/kg,ip administrated for 14 days; assay type: organism-based; settings: in vivo, 336 h, time 14 day
[2] = Subacute toxicity in C57BL/6 mouse assessed as spleen histological changes at 100 mg/kg,ip administrated for 14 days; assay type: organism-based; settings: in vivo, 336 h, time 14 day
[3] = Cytotoxicity against mouse J774.A1 cells incubated for 24 hrs by resazurin reagent based assay; assay type: toxicity, cell-based
[4] = Subacute toxicity in C57BL/6 mouse assessed as lung histological changes at 10 mg/kg,ip administrated for 14 days; assay type: organism-based; settings: in vivo, 336 h, time 14 day
[5] = Subacute toxicity in C57BL/6 mouse assessed as heart histological changes at 100 mg/kg,ip administrated for 14 days; assay type: organism-based; settings: in vivo, 336 h, time 14 day
[6] = Subacute toxicity in C57BL/6 mouse assessed as lung histological changes at 100 mg/kg,ip administrated for 14 days; assay type: organism-based; settings: in vivo, 336 h, time 14 day
[7] = Stability of compound in rat plasma measured for 48 hrs; assay type: ADME, cell-free
[8] = Cmax in Sprague-Dawley rat at 1 mg/kg,iv measured after 24 hrs by HPLC-MS/MS analysis; assay type: ADME, organism-based; parameters: dose 1 mg/kg, time 24 hrs, route iv; settings: in vivo
[9] = Subacute toxicity in C57BL/6 mouse assessed as body weight gain at 10 mg/kg,ip administrated for 14 days; assay type: organism-based; settings: in vivo, 336 h, time 14 day
[10] = Stability of compound in human plasma measured for 48 hrs; assay type: ADME, cell-free
[11] = Drug distribution in Sprague-Dawley rat small intestine at 1 mg/kg,iv measured for 0.5 to 2 hrs by HPLC-MS/MS analysis; assay type: ADME, organism-based; settings: in vivo, time 0.5-2 hrs
[12] = Drug distribution in Sprague-Dawley rat brain at 1 mg/kg,iv measured for 0.5 to 2 hrs by HPLC-MS/MS analysis; assay type: ADME, organism-based; settings: in vivo, time 0.5-2 hrs

CCCNS(=O)(=O)c1ccc2c(c1)CC(N(Cc1cc(Cl)ccc1OCCOC)C(=O)c1cc3ccccc3o1)C2 (racemic)
Activity [1]: Non-Toxic | Activity [2]: Non-Toxic | CC50 at 24 h [3]: > 30 µM | Activity [4]: Non-Toxic | Activity [5]: Non-Toxic | Activity [6]: Non-Toxic | Stability [7]: Stable | Cmax [8]: 219 ng/mL | Activity [9]: Toxic | Stability [10]: Stable | Drug uptake [11]: Active | Drug uptake [12]: Active
